Experimental data: patent US11622991B2, “Protocol for treatment of lupus nephritis” (Aurinia Pharmaceuticals Inc., priority 2017, dated 2023)
Where two headings read alike, the source gives them in different places.

Columns and labels:
lupus nephritis [1] = experiment: 48 week study of LN treatment: complete and partial remission; format: in vivo, human; settings: for patients showing complete remission (CR) / patients showing partial remission (PR): 24 weeks
Protocol: The study was conducted over a period of 48 weeks and safety was evaluated at 24 weeks.
Subjects were screened prior to admission to the study by (a) determining that the urine protein creatinine ratio (UPCR) as >1.5 mg/mg as measured by first morning void, and (b) that the eGFR as measured by Chronic Kidney Disease Epidemiology Collaboration equation (CKD-EP1) of >45 ml/min/1.73 m^2. Subjects were assessed after 24 weeks and 48 weeks as well as a subsequent evaluation at 50 weeks.
PR is a composite end-point that includes safety and efficacy: UPCR reduction of 50% from baseline and no use of rescue medication

lupus nephritis [2] = experiment: Pharmacodynamic dosing (eGFR-based dose reduction): CR/PR in patients with and without dose reduction; format: in vivo, human
Protocol: To determine the efficacy of the pharmacodynamic protocol wherein dosage is reduced or stopped according to the presence or absence of indicators of the decrease in eGFR experienced as a side effect, these three groups of patients were assessed after 24 weeks and 48 weeks of treatment with respect to whether treatment was altered according to the invention protocol.
In this study, CR was defined as a composite of UPCR ≤0.5 mg/mg; eGFR >60 mL/min/1.73 m^2 or within 20% of baseline, steroids at ≤10 mg/day and no administration of rescue medication. PR is defined as UPCR reduction of 50% from baseline and no use of rescue medication.

lupus nephritis [3] = experiment: Probability of attaining CR by proteinuria depending on UPCR reduction of 25% at 8 weeks (Tables 9a, 9b); format: in vivo, human
lupus nephritis [4] = experiment: Predictability of week 48 partial remission from early C3 normalization (Table 10); format: in vivo, human
Source text: (§1) PR is defined as at least 50% reduction in proteinuria (i.e. UPCR).
(§2) Sensitivity is defined as the probability that a subject showing PR at 48 weeks would have shown a favorable result with regard to the marker at the designated early time point. In the tables below, this is the ratio of the number of subjects with favorable marker results (early drop or normalization) to the total subjects with 48 week PR.
(§3) Specificity is defined as the probability that a subject not showing PR at 48 weeks would have shown an unfavorable result with regard to the marker at the designated early time point. In the tables below, this is the ratio of the number of subjects with unfavorable marker results (no early drop or no normalization) to the total subjects with no 48 week PR.
(§4) Positive predictive value is defined as the probability that a subject showing a favorable result with respect to the marker at an earlier time point would show PR at 48 weeks. In the tables below, this is the ratio of the number of subjects with favorable marker results who have 48 week PR to those with favorable marker results (early reduction or yes column).
(§5) Negative predictive value is defined as the probability that a subject showing an unfavorable result with respect to the marker at an earlier time point would not show PR at 48 weeks. In the tables below, this is the ratio of the number of subjects with unfavorable marker results who have no PR at 48 weeks to the total subjects with unfavorable marker results (no early reduction or no column).
(§6) Another criterion for effectiveness is normalization of C3 and/or C4 concentration in blood. The normal concentration of C3 is 90 mg/dl or greater and for C4 16 mg/dl or greater.

lupus nephritis [5] = experiment: Predictability of week 48 partial remission from early C4 normalization (Table 11); format: in vivo, human
Source text: as §1, §2, §3, §4, §5, §6

lupus nephritis [6] = experiment: Low dosage protocol (15.8 mg or 7.9 mg BID); format: in vivo, human
lupus nephritis [7] = settings: cited from earlier work
[8] = high dosage 39.5 mg BID with MMF and corticosteroids
[9] = low dosage 23.7 mg BID with MMF and corticosteroids
[10] = 24 weeks, High Dose (39.5 mg BID)
[11] = 24 weeks, Low Dose (23.7 mg BID)
[12] = 48 weeks, High Dose (39.5 mg BID)
[13] = 48 weeks, Low Dose (23.7 mg BID)
[14] = patients with dose reductions (pharmacodynamically dosed), High Dose (39.5 mg BID)
[15] = patients with dose reductions (pharmacodynamically dosed), Low Dose (23.7 mg BID)
[16] = patients with no dose reductions, High Dose (39.5 mg BID)
[17] = patients with no dose reductions, Low Dose (23.7 mg BID)

C=C/C=C/C[C@@H](C)[C@@H](O)[C@H]1C(=O)N[C@@H](CC)C(=O)N(C)CC(=O)N(C)[C@@H](CC(C)C)C(=O)N[C@@H](C(C)C)C(=O)N(C)[C@@H](CC(C)C)C(=O)N[C@@H](C)C(=O)N[C@H](C)C(=O)N(C)[C@@H](CC(C)C)C(=O)N(C)[C@@H](CC(C)C)C(=O)N(C)[C@@H](C(C)C)C(=O)N1C [voclosporin]
patients showing complete remission (CR) (lupus nephritis [1]; [8]): 27%
patients showing partial remission (PR) (lupus nephritis [1]; [8]): 66%
patients showing complete remission (CR) (lupus nephritis [1]; [9]): 32.6%
patients showing partial remission (PR) (lupus nephritis [1]; [9]): 70%
subjects showing complete remission (CR) (lupus nephritis [1]; 48 weeks, low dosage 23.7 mg BID with MMF and corticosteroids): 49%
Patients with Dose Reduction (lupus nephritis [2]; [10]): 47 (53.4) n(%)
Patients with no Dose Reduction (lupus nephritis [2]; [10]): 41 (46.6) n(%)
Patients with Dose Reduction (lupus nephritis [2]; [11]): 39 (43.8) n(%)
Patients with no Dose Reduction (lupus nephritis [2]; [11]): 50 (56.2) n(%)
Patients with Dose Reduction (lupus nephritis [2]; [12]): 53 (60.2) n(%)
Patients with no Dose Reduction (lupus nephritis [2]; [12]): 35 (39.8) n(%)
Patients with Dose Reduction (lupus nephritis [2]; [13]): 46 (51.7) n(%)
Patients with no Dose Reduction (lupus nephritis [2]; [13]): 43 (48.3) n(%)
Patients with CR at 24 weeks (lupus nephritis [2]; [14]): 13 (27.7) n(%)
Patients with CR at 48 weeks (lupus nephritis [2]; [14]): 24 (45.3) n(%)
Patients with PR at 24 weeks (lupus nephritis [2]; [14]): 34 (72.3) n(%)
Patients with PR at 48 weeks (lupus nephritis [2]; [14]): 41 (77.4) n(%)
Patients with CR at 24 weeks (lupus nephritis [2]; [15]): 14 (35.9) n(%)
Patients with CR at 48 weeks (lupus nephritis [2]; [15]): 24 (52.2) n(%)
Patients with PR at 24 weeks (lupus nephritis [2]; [15]): 28 (71.8) n(%)
Patients with PR at 48 weeks (lupus nephritis [2]; [15]): 35 (76.1) n(%)
Patients with CR at 24 weeks (lupus nephritis [2]; [16]): 11 (26.8) n(%)
Patients with CR at 48 weeks (lupus nephritis [2]; [16]): 11 (31.4) n(%)
Patients with PR at 24 weeks (lupus nephritis [2]; [16]): 24 (58.5) n(%)
Patients with PR at 48 weeks (lupus nephritis [2]; [16]): 22 (62.9) n(%)
Patients with CR at 24 weeks (lupus nephritis [2]; [17]): 15 (30.0) n(%)
Patients with CR at 48 weeks (lupus nephritis [2]; [17]): 20 (46.5) n(%)
Patients with PR at 24 weeks (lupus nephritis [2]; [17]): 34 (68.0) n(%)
Patients with PR at 48 weeks (lupus nephritis [2]; [17]): 26 (60.5) n(%)
# of patients without UPCR reduction of ≥25% at 8 weeks (lupus nephritis [3]; High Dose (39.5 mg BID)): 12
# of CRs by Proteinuria at 24 weeks (lupus nephritis [3]; Low Dose (23.7 mg BID)): 29
# of patients with UPCR reduction of ≥25% at 8 weeks (lupus nephritis [3]; Low Dose (23.7 mg BID)): 64
# of patients without UPCR reduction of ≥25% at 8 weeks (lupus nephritis [3]; Low Dose (23.7 mg BID)): 16
No Week 48 Partial Remission No Normalization (lupus nephritis [4]; week 12, 23.7 mg BID): 10
No Week 48 Partial Remission Normalization (lupus nephritis [4]; week 12, 23.7 mg BID): 8
Normalization Yes (lupus nephritis [4]; week 12, 23.7 mg BID): 31
No Week 48 Partial Remission No Normalization (lupus nephritis [4]; week 12, 39.5 mg BID): 10
No Week 48 Partial Remission Normalization (lupus nephritis [4]; week 12, 39.5 mg BID): 7
No Week 48 Partial Remission No Normalization (lupus nephritis [4]; week 24, 23.7 mg BID): 8
Normalization Yes (lupus nephritis [4]; week 24, 23.7 mg BID): 30
Week 48 Partial Remission No Normalization (lupus nephritis [4]; week 24, 23.7 mg BID): 33
No Week 48 Partial Remission No Normalization (lupus nephritis [4]; week 48, 23.7 mg BID): 8
No Week 48 Partial Remission Normalization (lupus nephritis [4]; week 48, 23.7 mg BID): 2
Normalization Yes (lupus nephritis [4]; week 48, 23.7 mg BID): 27
No Week 48 Partial Remission No Normalization (lupus nephritis [4]; week 48, 39.5 mg BID): 9
No Week 48 Partial Remission Normalization (lupus nephritis [4]; week 48, 39.5 mg BID): 7
No Week 48 Partial Remission No Normalization (lupus nephritis [5]; week 12, 23.7 mg BID): 8
No Week 48 Partial Remission Normalization (lupus nephritis [5]; week 12, 23.7 mg BID): 10
No Week 48 Partial Remission No Normalization (lupus nephritis [5]; week 12, 39.5 mg BID): 9
No Week 48 Partial Remission Normalization (lupus nephritis [5]; week 12, 39.5 mg BID): 8
Normalization No (lupus nephritis [5]; week 12, 39.5 mg BID): 31
Normalization Yes (lupus nephritis [5]; week 12, 39.5 mg BID): 48
No Week 48 Partial Remission Normalization (lupus nephritis [5]; week 24, 23.7 mg BID): 8
Normalization No (lupus nephritis [5]; week 24, 23.7 mg BID): 31
Week 48 Partial Remission Normalization (lupus nephritis [5]; week 24, 23.7 mg BID): 32
Normalization No (lupus nephritis [5]; week 48, 23.7 mg BID): 31
Week 48 Partial Remission Normalization (lupus nephritis [5]; week 48, 23.7 mg BID): 29
No Week 48 Partial Remission No Normalization (lupus nephritis [5]; week 48, 39.5 mg BID): 11
remission at reduced dosage (lupus nephritis [6]; dosage lowered to 7.9 mg BID quite early in the treatment): Substantial numbers of subjects showed complete or partial remission
remission at reduced dosage (lupus nephritis [6]; dosage reduced almost immediately to 15.8 mg BID): a substantial portion of subjects showed substantial remission
remission (lupus nephritis [7]; 23.7 mg or 39.5 mg twice daily with MMF and reducing corticosteroid, 24 weeks and 48 weeks): successful complete or partial remission in a large number of patients
remission (lupus nephritis [7]; 23.7 mg twice daily with MMF and reducing corticosteroid dose, 24 weeks): complete remission or partial remission in a large percentage of subjects
